Where “and” joins values, the source holds several entries; their conditions need not be identical. Identical values can stand only once.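 Five concentrations, 48 hours, 96-well plates. GI50: concentration for 50% inhibition of growth. Definition used: TGI = concentration required for complete inhibition of growth.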
What was measured:
Experiment in all cases: DTP human tumour cell line panel, 48 h
ACHN renal = tested on: ACHN renal
EKVX NSCLC = tested on: EKVX NSCLC
KM12 colon = tested on: KM12 colon
M14 melanoma = tested on: M14 melanoma
MOLT-4 leukemia = tested on: MOLT-4 leukemia
OVCAR-3 ovarian = tested on: OVCAR-3 ovarian
OVCAR-8 ovarian = tested on: OVCAR-8 ovarian
SF-268 CNS = tested on: SF-268 CNS
SR leukemia = tested on: SR leukemia
UACC-62 melanoma = tested on: UACC-62 melanoma

| SMILES | TGI (ACHN renal) | TGI (EKVX NSCLC) [nM] | TGI (KM12 colon) | TGI (M14 melanoma) | TGI (MOLT-4 leukemia) [nM] | TGI (OVCAR-3 ovarian) | TGI (OVCAR-8 ovarian) | TGI (SF-268 CNS) | TGI (SR leukemia) [nM] | TGI (UACC-62 melanoma) | GI50 (ACHN renal) | GI50 (EKVX NSCLC) | GI50 (KM12 colon) | GI50 (M14 melanoma) | GI50 (MOLT-4 leukemia) | GI50 (OVCAR-3 ovarian) | GI50 (OVCAR-8 ovarian) | GI50 (SF-268 CNS) | GI50 (SR leukemia) | GI50 (UACC-62 melanoma) |
| --- | --- | --- | --- | --- | --- | --- | --- | --- | --- | --- | --- | --- | --- | --- | --- | --- | --- | --- | --- | --- |
| Cn1nc(-c2ccccc2)nc1[N+](=O)[O-] | > 10000 nM | > 10000 | > 10000 nM | > 10000 nM | > 10000 | > 10000 nM | > 10000 nM | > 10000 nM | > 10000 | > 10000 nM |  |  |  |  |  |  |  |  |  |  |
| Nc1cc(-c2cccc(OC(F)(F)F)c2)nc2ccc(N3CCCC3)cc12 | 26000 nM and > 100000 nM | > 100000 | 14900 nM and > 100000 nM | 1600 nM and 1700 nM |  |  | 32600 nM and > 100000 nM | 22000 nM and > 100000 nM |  | 15800 nM and > 100000 nM | 90.3 nM and 101 nM and 107 nM | 222 nM and 362 nM and 380 nM | 38.6 nM and 33.3 nM and 37.2 nM | 28.5 nM and 21.5 nM and 16.8 nM | 44.7 nM and 42.2 nM and 40.5 nM | 31.8 nM and 28.8 nM and 27.3 nM | 54.7 nM and 49.7 nM and 45.9 nM | 81.9 nM and 83.7 nM and 78.4 nM | 27.5 nM and 15.4 nM and 13.5 nM | 71.8 nM and 48 nM and 60.3 nM |
| Cc1cccc(Cl)c1NC(=O)/C=C/c1ccccc1 | > 100000 nM | > 100000 | > 100000 nM | > 100000 nM | > 100000 | > 100000 nM | > 100000 nM | > 100000 nM | > 100000 | > 100000 nM |  |  |  |  |  |  |  |  |  |  |
| CC(=O)/C(=C\C1=CCCO1)C(=O)Nc1ccccc1C | > 100000 nM | > 100000 | > 100000 nM | > 100000 nM | > 100000 | > 100000 nM | > 100000 nM | > 100000 nM | > 100000 | > 100000 nM |  |  |  |  |  |  |  |  |  |  |
| c1cc(OCCN2CCCCC2)ccc1CNc1ccc2nc(CCC3CCCCC3)[nH]c2c1 | 5400 nM | 6190 | 6170 nM | 3380 nM | 6200 | 3500 nM | 6820 nM | 5430 nM | 3010 | 3470 nM | 2200 nM | 1990 nM | 2420 nM | 1720 nM | 2010 nM | 1730 nM | 2420 nM | 2080 nM | 617 nM | 1950 nM |
| COc1ccc2c(CN3CCC[C@H]3C(=O)O)cc3cc4c(cc3c2c1)OCO4 | > 100000 nM | 65700 | 41800 nM | 27300 nM | > 100000 | 63000 nM | 82300 nM | 67100 nM | > 100000 | 23700 nM | 5970 nM | 20200 nM | 12000 nM | 13300 nM | 5330 nM | 12000 nM | 5650 nM | 9870 nM | 6230 nM | 10900 nM |
| CN(C)C1CCN(C(=O)c2ccc(NC(=O)Nc3ccc(-c4nc(N5CCOCC5)nc(N5CCOCC5)n4)cc3)cc2)CC1 | > 100000 nM |  | 7730 nM and 2500 nM and 2360 nM | 5240 nM and 2500 nM and 1170 nM |  | 603 nM and 366 nM and 935 nM |  |  |  | 109 nM and 121 nM and 127 nM | 1420 nM and 1060 nM | 15.8 nM and 20.3 nM and 40.4 nM | 35.5 nM and 42.3 nM and 43.7 nM | 230 nM and 144 nM and 29.8 nM | 31.1 nM and 18 nM and 77.2 nM | 14.8 nM and 13.9 nM and 28.2 nM | 54.5 nM and 92.6 nM and 437 nM | 22.9 nM and 20.7 nM and 43.4 nM | 66.6 nM and 12.3 nM | 23.3 nM and 16.9 nM and 12.5 nM |
| O=C1NC2CCC(C2)C1c1ccccc1 (centres undefined) | > 100000 nM | > 100000 | > 100000 nM | > 100000 nM | > 100000 | > 100000 nM | > 100000 nM | > 100000 nM | > 100000 | > 100000 nM |  |  |  |  |  |  |  |  |  |  |
| C=C[C@H]1CCC/C=C/[C@@H]2C[C@H](O)C[C@H]2[C@H](O)/C=C/C(=O)O1 | > 100000 nM | > 100000 | 50.7 nM | > 100000 nM | > 100000 | 57.6 nM | > 100000 nM | > 100000 nM |  | > 100000 nM | 40.4 nM | 39.5 nM | 22 nM | 35.3 nM | 38.7 nM | 24.2 nM | 37.4 nM | 38 nM | 31.9 nM | 34.4 nM |
| COc1ccc(C(=O)OC2C=COC(C)C2OC(=O)c2ccc(OC)cc2)cc1 (centres undefined) | > 100000 nM | > 100000 | 40200 nM | 35900 nM | 56000 | 32300 nM | > 73700 nM | 44700 nM | 61900 | 37700 nM |  |  |  |  |  |  |  |  |  |  |
| CC/C(=C(/CC)c1ccc(O)cc1)c1ccc([O-])cc1.CC/C(=C(/CC)c1ccc(O)cc1)c1ccc([O-])cc1.O=C([CH-]C(=O)c1ccccc1)c1ccccc1.O=C([CH-]C(=O)c1ccccc1)c1ccccc1.[Ti+4] | 72800 nM | 46000 | 35100 nM |  | > 100000 | > 100000 nM | 46300 nM | 73200 nM | > 100000 | 25500 nM | 20500 nM | 17600 nM | 12500 nM | 8340 nM | 4930 nM | 27700 nM | 21500 nM | 18000 nM | 9890 nM | 6610 nM |
| COc1cc2c(cc1OCCCCCCN1CCN(c3ncnc4ccccc34)CC1)N=CC1CCCN1C2=O (centres undefined) | 12300 nM | 2010 | 375 nM | 1220 nM | 203 | 88 nM |  | 3480 nM | < 32.1 | 326 nM | 345 nM | 354 nM | 116 nM | 171 nM | 37.8 nM | 33.6 nM | 188 nM | 201 nM | < 17.4 nM | 143 nM |
| COc1cc2c(Oc3ccc4[nH]c(C)cc4c3F)ccnc2cc1OCC1(N)CC1 | 12500 nM | > 100000 | 12500 nM | 2530 nM | 14000 | 24700 nM | > 100000 nM | 12900 nM | 4310 | 3790 nM | 2050 nM | 2790 nM | 1240 nM | 1020 nM | 971 nM | 809 nM | 2920 nM | 1390 nM | 395 nM | 1640 nM |
| O=C(Nc1ccc(F)cc1)C(=O)C(C1OC(=O)c2ccccc21)[N+](=O)[O-] (centres undefined) | > 100000 nM | > 100000 | > 100000 nM | > 100000 nM | > 100000 | > 100000 nM | > 100000 nM | > 100000 nM | > 100000 | > 100000 nM |  |  |  |  |  |  |  |  |  |  |
| CCOC(=O)C1=C(Nc2ccc(Cl)cc2Cl)OC/C1=N\NS(=O)(=O)c1ccc(C)cc1 | > 100000 nM | > 100000 | > 100000 nM | > 100000 nM | > 100000 | > 100000 nM | > 100000 nM | > 100000 nM | > 100000 | > 100000 nM |  |  |  |  |  |  |  |  |  |  |

Source: PubChem BioAssay (NCI)
